Marks after values point to notes of the source that are not given here.
Columns and labels:
Assay type in all cases: cell-based
[1] = tested on: human preadipocytes of passage R7; test: Adipocyte phenotype restoration in artificially aged (passage R7) preadipocytes, protocol 1 (Oil-Red-O, OD 540 nm); settings: protocol 1: product present during differentiation; 10 μg/ml on a dry extract basis
Source text: (§1) The term “passage” or “subculturing” or “amplification” denotes here the operation, known to those skilled in the art, consisting in amplifying the cells in question successively by means of culture cycles. Thus, the term “preadipocytes of passage RO” denotes the preadipocytes which have undergone no passage operation as defined above. The term “preadipocytes of passage R1” denotes the preadipocytes which have undergone a single passage operation as defined above. The term “preadipocytes of passage R7” denotes the preadipocytes which have undergone 7 successive passage operations under identical operating conditions.
(§2) • i) Human preadipocytes of passage R1 were cultured in monolayer for 5 days until confluence. […]
The optical density thus measured for the young control is denoted “ODR1”. […]

[2] = tested on: human preadipocytes of passage R7; test: Adipocyte phenotype restoration in artificially aged (passage R7) preadipocytes, protocol 3; settings: protocol 3: product present during culture and differentiation; 10 μg/ml on a dry extract basis
Source text: as §1, §2
The effect of the N-hexadecanoyl isoleucine on human preadipocytes of passage R7 is evaluated according to a variant of the procedure of protocol 2, the first step of which consists in culturing the human preadipocytes of passage R7 in a monolayer for 5 days until confluence in the presence of N-hexadecanoyl isoleucine. […]

[3] = tested on: human preadipocytes of passage R7; test: Adipocyte phenotype restoration in artificially aged (passage R7) preadipocytes, protocol 2; settings: protocol 2: product present during 5-day culture until confluence; 10 μg/ml on a dry extract basis
Source text: as §1, §2
The steps of sections a) and b) of protocol 1 are carried out using human preadipocytes of passage R1 and human preadipocytes of passage R7 so as to obtain a “young” control and an “aged” control and the associated optical densities ODR1 and ODR7. The effect of the N-hexadecanoyl isoleucine on human preadipocytes of passage R7 is evaluated according to a variant of the procedure of protocol 1, the first step of which consists in culturing the human preadipocytes of passage R7 in a monolayer for 5 days until confluence in the presence of N-hexadecanoyl isoleucine. […]

[4] = tested on: normal human preadipocytes; test: Differentiation of normal human preadipocytes in depleted differentiation medium (Bodipy lipid droplet labeling, image analysis); settings: 15 days
Method: Normal human preadipocytes resulting from abdominal surgical waste from a donor were cultured in monolayer until confluence in the presence of a culture medium comprising PBM-2 (Preadipocyte Basal Medium-2) supplied by the company Lonza, an amount of 10% by volume of FBS (Fetal Bovine Serum) for 100% of the volume of the culture medium, L-glutamine and gentamicin.
Their differentiation into adipocytes was induced by adding a “depleted” differentiation medium comprising a mixture of insulin, dexamethasone, IBMX (isobutyl methyl xanthine) and indomethacin, and used at a dilution rate of 1/10th with respect to a “standard” differentiation medium.
A differentiation phase is also carried out on human preadipocytes as described above and cultured in monolayers as described above, but in the presence of a “standard” differentiation medium, namely a nondiluted mixture of insulin, dexamethasone, IBMX (IsoButyl Methyl Xanthine) and indomethacin, so as to obtain a “control differentiated in standard medium”.
Once the maturity of the preadipocytes was reached, namely after 15 days following the induction described above, the cultures were rinsed with a PBS (Phosphate Buffered Saline) buffer and the intracytoplasmic lipid vesicles were labeled using a specific viable fluorescent probe, Bodipy (500 μg/ml). The nuclei of the differentiated preadipocytes were also labeled using a Hoechst reagent (bisbenzimide), which is also fluorescent, at a concentration of 2 μg/ml, sold by the company Sigma.
Three photographs per well were taken using a Zeiss Axiovert™ 25 inverted epifluorescence microscope fitted with an ×20 objective.
For each test of products tested, including controls, the images obtained with the inverted epifluorescence microscope are analyzed using the Lucia software, allowing quantification of the Bodipy fluorescent label, in order to carry out: • a measurement of the lipid droplet surface area (Sd), • a measurement of the number of differentiated cells (Nc), and • a measurement of the number of total cell nuclei (Nnc).
For each test, the level of adipocyte differentiation (D) is then calculated by relating the lipid droplet surface area to the number of total nuclei according to the following formula: (D)=(lipid droplet surface area)/(number of total cell nuclei).
The following will thus be calculated: • the level of adipocyte differentiation of the control differentiated in depleted medium (subsequently denoted Ddm); • the level of adipocyte differentiation of the control differentiated in standard or complete medium (subsequently denoted Dcm); • the level of adipocyte differentiation of the products tested (N-hexadecanoyl isoleucine, hexadecanoic acid, isoleucine, hexadecanoic acid/isoleucine mixture in a ratio by weight of 65/35) (subsequently denoted Dpt).
For each product tested, the following are then calculated:
a) the percentage restoration of adipocyte differentiation (subsequently denoted RAD) according to the following formula: RAD=[(Dpt−Ddm)/(Dcm−Ddm)]×100
b) the adipocyte surface area (AS) according to the following formula: (AS)=[(lipid droplet surface area Sd)/(number of differentiated cells Nc)]×100
c) the percentage increase in adipocyte surface area (subsequently denoted IAS) relative to the control treated with depleted medium according to the formula: IAS=[adipocyte surface area of the product (ASpt)/adipocyte surface area of the control treated with the depleted medium (ASdm)]×100.
A statistical analysis is then carried out on the data (D) and (AS) using a two-sided Student's test assuming unequal variances. Thus, the population of each of the experimental conditions tested for the parameters (D) and (AS) is compared with the population of the condition of differentiation in the presence of the depleted differentiation medium. An error threshold (p) is set at 5%.

[5] = 1.7 μg/ml on a dry extract basis

Row | Compound | PRR (phenotype restoration rate) [1] [%*] | PRR (phenotype restoration rate) [2] [%*] | PRR (phenotype restoration rate) [3] [%*] | IAS (percentage increase in adipocyte surface area relative to control in depleted medium = 100%) ([4]; 3.3 μg/ml) | RAD (percentage restoration of adipocyte differentiation) ([4]; 3.3 μg/ml) [%] | IAS (percentage increase in adipocyte surface area relative to control in depleted medium = 100%) ([4]; 6.5 μg/ml) [%] | RAD (percentage restoration of adipocyte differentiation) ([4]; 6.5 μg/ml) [%] | IAS (percentage increase in adipocyte surface area relative to control in depleted medium = 100%) [4, 5] [%] | RAD (percentage restoration of adipocyte differentiation) [4, 5] [%]
1 | CCCCCCCCCCCCCCCC(=O)N[C@H](C(=O)O)[C@@H](C)CC [N-hexadecanoyl isoleucine] | 16 | 30 | 17 |  |  |  |  |  | 
2 | CCCCCCCCCCCCCCCC(=O)O [Hexadecanoic acid, hexadecanoic acid] |  |  |  | 41%* | <10 | 62 | <10 |  | 
3 | CC[C@H](C)[C@H](N)C(=O)O [Isoleucine, isoleucine] |  |  |  | 117% | <10 |  |  | 57 | <10

Reference: patent US9687431B2, “Use of isoleucine N-hexadecanoyl as a “volumizing” and/or “plumping” agent for human skin” (SOCIETE D'EXPLOITATION DE PRODUITS POUR LES INDUSTRIES …, priority 2009, dated 2017)
